Biological target: T1, Matrix-Metalloproteinase 9 (MMP9) (Homo sapiens, UniProt P14780)
T1 construct: 5 μl sample (active MMP9 at 2 μg/ml)
Assay: Fluorogenic peptide cleavage assay with active MMP9 (kinetic fluorescence scan)
Assay type: biochemical
Details: active MMP9 at 2 μg/ml, 5 μl of 0.2 mM peptide per well; excitation 328 nm, emission 400 nm; kinetic scan 30 min; FIG. 3
Procedure: 2 flurogenic peptides with 1 (PCL0174 A4) or 2 (PCL0174 B1) cleavable sequences respectively were investigated with sensitivity towards Matrix-Metalloproteinase 9 (MMP9).
96-well assay plate, black polystyrene, Costar®, Corning Inc. (Cat. #3925, lot #25011023)
MMP buffer, Aq. Solution of 50 mM Tris, 100 mM sodium chloride, 10 mM Calcium Chloride, 50 μM […] zinc chloride, 0.025% Brij 35, 0.05% sodium azide at pH 8.0.
Peptides PCL0174 A4 and PCL0174 B1 at a molar concentration of 8 mM
Testing Method • Peptides at a stock of 8 mM were diluted to 0.2 mM in MMP buffer • 2 μl+78 μl MMP buffer • 5 μl sample (active MMP9 at 2 μg/ml)+190 μl MMP buffer added to well • 5 μl of 0.2 mM peptide added per well • Read on a Fluorometer using the following settings: • Excitation wavelength: 328 nm, bandwidth 5 nm • Emission wavelength: 400 nm, bandwidth 5 nm • Kinetic scan: 30 min, interval 1 min

T1 sequence (P14780 107-707 limits assumed, species assumed): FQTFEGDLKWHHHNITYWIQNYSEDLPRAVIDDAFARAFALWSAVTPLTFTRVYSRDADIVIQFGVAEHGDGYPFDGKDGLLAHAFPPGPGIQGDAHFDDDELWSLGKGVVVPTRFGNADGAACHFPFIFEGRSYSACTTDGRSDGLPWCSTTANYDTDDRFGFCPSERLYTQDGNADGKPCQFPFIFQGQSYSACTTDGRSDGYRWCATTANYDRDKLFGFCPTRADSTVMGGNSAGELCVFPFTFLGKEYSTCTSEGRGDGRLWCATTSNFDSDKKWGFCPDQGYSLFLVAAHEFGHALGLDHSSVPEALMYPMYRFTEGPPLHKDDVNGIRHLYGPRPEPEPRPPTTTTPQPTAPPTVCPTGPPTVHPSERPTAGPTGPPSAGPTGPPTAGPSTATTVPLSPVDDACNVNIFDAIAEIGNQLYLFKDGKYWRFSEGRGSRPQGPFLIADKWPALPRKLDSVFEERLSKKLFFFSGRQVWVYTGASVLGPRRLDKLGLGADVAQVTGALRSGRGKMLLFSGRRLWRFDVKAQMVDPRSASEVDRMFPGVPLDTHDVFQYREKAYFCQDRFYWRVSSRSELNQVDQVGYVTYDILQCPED

| Substance | running time at which the same result (signal) is achieved |
| --- | --- |
| Lys(Mc Coumarin)-[GPQGIFGQ]-Lys(Dnp)G [1 CS] | 30 min |
| Lys(Mc Coumarin)-[GPQGIFGQ])-[GPQGIFGQ]-Lys(Dnp)G [2 CS] | 8 min |

— patent publication US20160257988A1, “Indicator Molecules For Use In Detecting Enzyme Cleavage Activity” (Mologic Limited, priority 2013, published 2016)
